Measurements as given in article PMC11304990, “Identification of mitochondrial ATP synthase as the cellular target of Ru-polypyridyl-β-carboline complexes by affinity-based protein profiling” (National Science Review, 2024).
Each block holds one compound with its values, some of them ahead of it.

Columns and labels:
[1] = target: ATPase (mitochondrial ATP synthase); experiment: Inhibition of the enzymatic activity of ATPase in vitro; assay type: biochemical; settings: read-out: Inhibition constant (Ki)
Protocol: (§1) Figure 1. Validation of ATP5F1 as the molecular target of Ru5. (A) Proteins pulled down by streptavidin from A549 cells treated with Ru5a followed by PAL. The cells were treated with Ru5a (50 μM) for 12 h and irradiated with UV light for 20 min. (B) The top five peptides enriched by Ru5a-mediated PAL were identified with the assistance of SILAC-based chemoproteomic studies. H1F0: H1 histone family member 0; HIST4H4: histone cluster 4 H4; HIST3H2BB: histone cluster 3 H2B family member b; ATP5F1E: ATP synthase F1 subunit epsilon; HIST1H2AJ: histone cluster 1 H2A family member J. (C) Pull-down western blotting analysis of ATPase in A549 cells treated with Ru5a. (D) Cellular Ru content in cells treated with Ru5/Ru5a (20 μM, 12 h) measured by ICP-MS. (E) Impact of Ru5/Ru5a (10 μM) on the thermal stability of ATP5F1 measured by CETSA. (F) Impact on the anticancer activities of Ru5/Ru5a against wild type and ATPase knocking down (by siRNA) A549 cells. The relative cellular viability was calculated using the cells without drug treatment in each group as the control group. (G) Inhibition of Ru5/Ru5a on the enzymatic activity of ATPase. (-)-blebbistatin was used as the positive control. (H) Molecular docking of Ru5 with ATPase (PDB: 3ZIA). The red dashes indicate the hydrogen bonds formed between Ru5 and the amino acid residues (SER38 and GLN39). The yellow dashes indicate the hydrophobic interaction between Ru5 and the amino acid residues (ASN15 and GLN19). Data are presented as means ± SD from three independent experiments. TEXT PRINTED IN THE PICTURE: (B) Ru5a: Log2 (fold change) (Ru5a/DMSO): 1.43 (Protein name: H1F0); Log2 (fold change) (Ru5a/DMSO): 1.23 (Protein name: HIST4H4); Log2 (fold change) (Ru5a/DMSO): 1.22 (Protein name: HIST3H2BB); Log2 (fold change) (Ru5a/DMSO): 1.21 (Protein name: ATP5F1E); Log2 (fold change) (Ru5a/DMSO): 1.12 (Protein name: HIST1H2AJ) DOUBTS OF THE COPYIST ABOUT THIS PICTURE: Panel B: the table rows are proteins enriched by Ru5a, not separate substances. […]

prostate cancer (PC3) = experiment: MTT antiproliferative assay, PC3; assay type: cell-based, human; settings: 72 h
From the text: (§2) Ru3–Ru9 also show a certain selectivity for cancer cells over normal cells, and Ru2, Ru3, Ru5 and Ru9 show higher selectivity index (SI) values than the other complexes.
(§3) PA-BPP was then used to confirm the molecular targets of Ru5 by modifying it with a ‘minimalist’ biorthogonal handle-containing photo-cross-linker. Through our structure–activity relationship analysis and comparison with other ruthenium complexes utilizing phen as the auxiliary ligands with similar coordination structures (using cisplatin as a control), we propose that the β-carboline ligands play an important role in antiproliferative activity. To maintain the binding characteristics of the β-carboline moiety with the targeted biomolecules, we linked the photo-cross-linker to one of the auxiliary ligands of Ru5.

[2] = tested on: human lung fibroblast-like (HLF) cells; experiment: MTT antiproliferative assay, HLF; assay type: cell-based; settings: 72 h
From the text: as §2, §3

[3] = tested on: cervical carcinoma (HeLa); experiment: MTT antiproliferative assay, HeLa; assay type: cell-based, human; settings: 72 h
From the text: as §2, §3

A549 xenograft = A549 xenograft nude mice model; assay type: in vivo; settings: 5 mg kg−1, intratumoral injection every 7 days, 14 days, compared with the control groups
Protocol: Lastly, the in vivo anticancer activity of Ru5 was assessed via a A549 xenograft nude mice model (Fig. 5A). Mice were treated with PBS, cisplatin (5 mg kg^−1) or Ru5 (5 mg kg^−1) for 14 days, during which body weights and tumor volumes were monitored.
Figure 5. […] (A) Schematic illustration of in vivo therapeutic protocol. (B) Graphs of tumor volumes of nude mice after treatment with Ru5 (5 mg kg^−1), cisplatin (5 mg kg^−1) and PBS. The intratumoral injections were performed every 7 days. Data are presented as means ± SD, n = 5. (C) Immunohistochemical analysis of hematoxylin-eosin (H&E) staining in tumor sections from mice with different treatments. Scale bar: 50 μm. (D) Tumors separated from nude mice. (E) The average body weight of the mice in each group during the treatment process. Data are presented as means ± SD, n = 5. (F) H&E staining of the main organs from mice with different treatments. Scale bar: 100 μm.

malignant glioma (U87) = experiment: MTT antiproliferative assay, U87; assay type: cell-based, human; settings: 72 h
From the text: as §2, §3

[4] = tested on: lung adenocarcinoma (A549); experiment: MTT antiproliferative assay, A549; assay type: cell-based, human; settings: for IC50: 72 h; for SI (selectivity index): SI = (IC50 for HLF)/(IC50 for A549)
From the text: as §2, §3

[5] = tested on: triple negative breast cancer (MDA-MB-231); experiment: MTT antiproliferative assay, MDA-MB-231; assay type: cell-based, human; settings: 72 h
From the text: as §2, §3

[6] = tested on: cisplatin-resistant A549R; experiment: MTT antiproliferative assay, A549R; assay type: cell-based, human; settings: 72 h
From the text: as §2, §3

[7] = Aqueous solubility by concentration-absorbance linearity; assay type: physicochemical; settings: PBS with 1% DMSO
From the text: Subsequently, the lipophilicity and aqueous solubility of Ru1–Ru9 were investigated.

ATP5F1 = experiment: Cellular thermal shift assay (CETSA); assay type: cell-based; settings: 10 μM
Protocol: as §1, with “GLN39).” for “GLN39). The yellow dashes indicate the hydrophobic interaction between Ru5 and the amino acid residues (ASN15 and GLN19). Data are presented as means ± SD from three independent experiments. TEXT PRINTED IN THE PICTURE: (B) Ru5a: Log2 (fold change) (Ru5a/DMSO): 1.43 (Protein name: H1F0); Log2 (fold change) (Ru5a/DMSO): 1.23 (Protein name: HIST4H4); Log2 (fold change) (Ru5a/DMSO): 1.22 (Protein name: HIST3H2BB); Log2 (fold change) (Ru5a/DMSO): 1.21 (Protein name: ATP5F1E); Log2 (fold change) (Ru5a/DMSO): 1.12 (Protein name: HIST1H2AJ) DOUBTS OF THE COPYIST ABOUT THIS PICTURE: Panel B: the table rows are proteins enriched by Ru5a, not separate substances.”

A549 cells = experiment: Anticancer activity in wild type vs ATPase siRNA knockdown cells; assay type: cell-based, human; settings: compared to wild-type cells
Protocol: as §1, with “GLN39).” for “GLN39). The yellow dashes indicate the hydrophobic interaction between Ru5 and the amino acid residues (ASN15 and GLN19). Data are presented as means ± SD from three independent experiments. TEXT PRINTED IN THE PICTURE: (B) Ru5a: Log2 (fold change) (Ru5a/DMSO): 1.43 (Protein name: H1F0); Log2 (fold change) (Ru5a/DMSO): 1.23 (Protein name: HIST4H4); Log2 (fold change) (Ru5a/DMSO): 1.22 (Protein name: HIST3H2BB); Log2 (fold change) (Ru5a/DMSO): 1.21 (Protein name: ATP5F1E); Log2 (fold change) (Ru5a/DMSO): 1.12 (Protein name: HIST1H2AJ) DOUBTS OF THE COPYIST ABOUT THIS PICTURE: Panel B: the table rows are proteins enriched by Ru5a, not separate substances.”

mitochondria = experiment: Subcellular Ru content by ICP-MS; assay type: cell-based; settings: 20 μM, 12 h
Protocol: as §1, with “GLN39).” for “GLN39). The yellow dashes indicate the hydrophobic interaction between Ru5 and the amino acid residues (ASN15 and GLN19). Data are presented as means ± SD from three independent experiments. TEXT PRINTED IN THE PICTURE: (B) Ru5a: Log2 (fold change) (Ru5a/DMSO): 1.43 (Protein name: H1F0); Log2 (fold change) (Ru5a/DMSO): 1.23 (Protein name: HIST4H4); Log2 (fold change) (Ru5a/DMSO): 1.22 (Protein name: HIST3H2BB); Log2 (fold change) (Ru5a/DMSO): 1.21 (Protein name: ATP5F1E); Log2 (fold change) (Ru5a/DMSO): 1.12 (Protein name: HIST1H2AJ) DOUBTS OF THE COPYIST ABOUT THIS PICTURE: Panel B: the table rows are proteins enriched by Ru5a, not separate substances.”

Compound: Cc1ccc2c(c1)C(=O)C1(O)CCN(c3ccccc3)C1=N2 (single isomer, unassigned; (-)) [(-)-blebbistatin, reference compound]
Ki [1]: 3.3 ± 0.5 µM

Compound: N.N.[Cl][Pt][Cl] [Cisplatin, reference compound]
IC50 (prostate cancer (PC3)): 13.1 ± 2.7 µM | IC50 [2]: 15.4 ± 1.1 µM | IC50 [3]: 10.3 ± 1.3 µM | Tumor growth inhibitory rate (A549 xenograft): ~74.4% | IC50 (malignant glioma (U87)): 14.8 ± 1.2 µM | IC50 [4]: 5.9 ± 1 µM | SI (selectivity index) [4]: 2.6 | IC50 [5]: 9 ± 0.2 µM | IC50 [6]: 28.1 ± 4.2 µM

Compound: F[P-](F)(F)(F)(F)F.F[P-](F)(F)(F)(F)F.[Ru+2].c1ccc2nc(-c3nccc4c3[nH]c3ccccc34)ccc2c1.c1cnc2c(c1)ccc1cccnc12.c1cnc2c(c1)ccc1cccnc12 [Ru2]
Linear relationship between absorbance and concentration up to [7]: at least 100 μM | SI (selectivity index) [4]: higher

Compound: F[P-](F)(F)(F)(F)F.F[P-](F)(F)(F)(F)F.[Ru+2].c1ccc(-c2ccnc3c2ccc2c(-c4ccccc4)ccnc23)cc1.c1ccc(-c2ccnc3c2ccc2c(-c4ccccc4)ccnc23)cc1.c1ccc2nc(-c3nccc4c3[nH]c3ccccc34)ccc2c1 [Ru3]
Highest solubility [7]: lower than 40 μM | SI (selectivity index) [4]: higher

Compound: C#CCCC1(CCNC(=O)c2cc3cccnc3c3ncccc23)N=N1.F[P-](F)(F)(F)(F)F.F[P-](F)(F)(F)(F)F.[Ru+2].c1ccc2c(c1)[nH]c1c(-c3ncc[nH]3)nccc12.c1cnc2c(c1)ccc1cccnc12 [Ru5a]
IC50 (prostate cancer (PC3)): 3.4 ± 0.6 µM | IC50 [2]: 23.2 ± 0.3 µM | IC50 [3]: 3.8 ± 0.1 µM | Thermal stability of ATP5F1 (ATP5F1): increased | Effect of siRNA-mediated knockdown of ATPase on anticancer effects (A549 cells): alleviates | IC50 (malignant glioma (U87)): 13.4 ± 0.4 µM | IC50 [4]: 2.5 ± 0.4 µM | SI (selectivity index) [4]: 9.3 | IC50 [5]: 8.4 ± 0.6 µM | Subcellular location (cellular Ru content) (mitochondria): mainly located in mitochondria | Ki [1]: 8.1 ± 1.5 µM | IC50 [6]: 4.2 ± 0.6 µM

The next lines start with results.

Highest solubility [7]: lower than 40 μM
Compound: F[P-](F)(F)(F)(F)F.F[P-](F)(F)(F)(F)F.[Ru+2].c1ccc(-c2ccnc3c2ccc2c(-c4ccccc4)ccnc23)cc1.c1ccc(-c2ccnc3c2ccc2c(-c4ccccc4)ccnc23)cc1.c1ccc2c(c1)[nH]c1c(-c3ncc[nH]3)nccc12 [Ru6]

Linear relationship between absorbance and concentration up to [7]: at least 100 μM
Compound: F[P-](F)(F)(F)(F)F.F[P-](F)(F)(F)(F)F.[Ru+2].c1ccc2[nH]c(-c3nccc4c3[nH]c3ccccc34)nc2c1.c1cnc2c(c1)ccc1cccnc12.c1cnc2c(c1)ccc1cccnc12 [Ru8]

Highest solubility [7]: lower than 40 μM
Compound: F[P-](F)(F)(F)(F)F.F[P-](F)(F)(F)(F)F.[Ru+2].c1ccc(-c2ccnc3c2ccc2c(-c4ccccc4)ccnc23)cc1.c1ccc(-c2ccnc3c2ccc2c(-c4ccccc4)ccnc23)cc1.c1ccc2[nH]c(-c3nccc4c3[nH]c3ccccc34)nc2c1 [Ru9]
SI (selectivity index) [4]: higher
